Measured values reported in patent US11076595B2, “1-(n,n-disubstituted carbamoyl) 4-(substituted sulfonyl)triazolin-5-one derivative, 4-(n,n-disubstituted carbamoyl) 1-(substituted sulfonyl)triazolin-5-one derivative, and herbicide containing said derivative as active ingredient” (HOKKO CHEMICAL INDUSTRY CO., LTD., priority 2017, dated 2021).

Columns and labels:
Format in all cases: in vivo
Chenopodium album = test: Test Example 13: herbicidal effect test by soil treatment in upland field; settings: 120 g/10a, 14 days after treatment
Protocol: (§1) A pot having a size of 36 cm^2 was filled with field soil (alluvial soil) and after mixing the soil of the surface layer of 1 cm with 20 grains of each weed seed of crabgrass, Echinochloa crus-galli, Chenopodium album and Amaranthus viridis, the surface layer was pressed lightly. One day after the sowing, an emulsifiable concentrate prepared according to Formulation Example 15 by using the compound shown in Table 11 below was diluted with water, and the water-diluted formulation was sprayed on the soil surface at a ratio of 100 liter per 10 are. The application rate of the active ingredient, by conversion, corresponded to 120 g per 10 are. Fourteen Days after the formulation treatment, the herbicidal effect was evaluated by the same criteria as in Test Example 11.

Amaranthus viridis = test: as above; settings: 120 g/10a, 14 days after treatment
Protocol: as §1

Echinochloa crus-galli [1] = test: as above; settings: 120 g/10a, 14 days after treatment
Protocol: as §1

crabgrass = test: as above; settings: 120 g/10a, 14 days after treatment
Protocol: as §1

Scirpus juncoides [2] = test: Test Example 12: herbicidal effect test by treatment during growing period in paddy field; settings: 120 g/10a; treatment seven days after sowing in flooded paddy pot; assessed 14 days after treatment
Procedure, shortened: (§2)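 Read-out: weed suppression (%) = (1 − treated/untreated mean dry weight) × 100, scored 14 days after treatment with two replications. Pots held puddled paddy soil, 30 seeds per species sown 0–1 cm, flooded ~3 cm. Post-emergence dropwise water application at 7 days after sowing, 120 g a.i./10 are.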

Monochoria vaginalis [3] = test: as above; settings: 120 g/10a; treatment seven days after sowing in flooded paddy pot; assessed 14 days after treatment
Procedure, shortened: as §2

Lindernia pyxidaria [4] = test: as above; settings: 120 g/10a; treatment seven days after sowing in flooded paddy pot; assessed 14 days after treatment
Procedure, shortened: as §2

Echinochloa crus-galli [5] = test: as above; settings: 120 g/10a; treatment seven days after sowing in flooded paddy pot; assessed 14 days after treatment
Procedure, shortened: as §2

Scirpus juncoides [6] = test: Test Example 11: herbicidal effect test by soil treatment in paddy field; settings: 120 g/10a active ingredient, 14 days after treatment
Procedure, shortened: (§3)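 Weed suppression rate (%) was calculated as (1 − mean treated dry weight / mean untreated dry weight) × 100 at 14 days after treatment, two replicates per plot. Seeds were sown at 0–1 cm in flooded (about 3 cm) puddled paddy soil and treated immediately at 120 g active ingredient per 10 are.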

Monochoria vaginalis [7] = test: as above; settings: 120 g/10a active ingredient, 14 days after treatment
Procedure, shortened: as §3

Lindernia pyxidaria [8] = test: as above; settings: 120 g/10a active ingredient, 14 days after treatment
Procedure, shortened: as §3

Echinochloa crus-galli [9] = test: as above; settings: 120 g/10a active ingredient, 14 days after treatment
Procedure, shortened: as §3

SMILES	herbicidal effect, Chenopodium album (Chenopodium album)	herbicidal effect, Amaranthus viridis (Amaranthus viridis)	herbicidal effect, Echinochloa crus-galli (Echinochloa crus-galli [1])	herbicidal effect, Crabgrass (crabgrass)	Weed suppression rate (%) Scirpus juncoides (Scirpus juncoides [2])	Weed suppression rate (%) Monochoria vaginalis (Monochoria vaginalis [3])	Weed suppression rate (%) Lindemia pyxidaria (Lindernia pyxidaria [4])	Weed suppression rate (%) Echinochloa crus-galli (Echinochloa crus-galli [5])	Weed suppression rate (%) Scirpus juncoides (Scirpus juncoides [6])	Weed suppression rate (%) Monochoria vaginalis (Monochoria vaginalis [7])	Weed suppression rate (%) Lindemia pyxidaria (Lindernia pyxidaria [8])	Weed suppression rate (%) Echinochloa crus-galli (Echinochloa crus-galli [9])
CCN(CC)C(=O)n1cnn(S(=O)(=O)c2ccccc2C)c1=O [Compound 11-622]	40%	40%	90%	80%	50%	50%	50%	90%	40%	0%	40%	90%
CCN(CC)C(=O)n1cnn(S(=O)(=O)c2ccc(C(C)(C)C)cc2)c1=O [Compound 11-670]	0%	0%	70%	70%					60%	50%	70%	50%
CC(C)N(C(=O)n1cnn(S(=O)(=O)c2c(F)c(F)c(F)c(F)c2F)c1=O)c1ccc(F)cc1Cl [Compound 11-818]	60%	60%	100%	100%	100%	100%	80%	100%	100%	100%	100%	100%
CC(C)N(C(=O)n1cnn(S(=O)(=O)C(F)(F)F)c1=O)c1ccc(F)cc1F [Compound 11-95]	0%	0%	70%	70%	70%	90%	60%	90%	100%	50%	100%	100%
CC(C)N(C(=O)n1cnn(S(=O)(=O)c2cccnc2)c1=O)c1ccc(F)cc1F [Compound 11-985]	0%	0%	80%	80%					40%	40%	60%	90%
CC(C)N(C(=O)n1cnn(S(=O)(=O)C2CC2)c1=O)c1ccc(C#N)cc1Cl [Compound 11-222]	80%	90%	80%	90%	90%	80%	80%	90%	90%	80%	80%	90%
CC(C)N(C(=O)n1cnn(S(=O)(=O)c2ccc(Br)cc2)c1=O)c1ccc(F)cc1F [Compound 11-616]	80%	80%	80%	40%	60%	80%	80%	50%	90%	90%	90%	90%
CCN(CC)C(=O)n1cnn(S(=O)(=O)c2ccccc2)c1=O [Compound 11-352]	40%	0%	80%	80%	60%	60%	70%	100%	60%	50%	60%	100%
CC(C)N(C(=O)n1cnn(S(=O)(=O)c2ccc(C(C)(C)C)cc2)c1=O)c1ccc(F)cc1F [Compound 11-682]	40%	40%	90%	80%	80%	90%	90%	90%	90%	90%	90%	100%
CC(C)N(C(=O)n1cnn(S(=O)(=O)c2ccc(Cl)cc2)c1=O)c1ccc(F)cc1F [Compound 11-588]	80%	40%	80%	60%	70%	90%	90%	80%	90%	90%	90%	90%
CCN(CC)C(=O)n1cnn(S(=O)(=O)c2ccccc2C(F)(F)F)c1=O [Compound 11-710]	60%	40%	100%	80%	40%	40%	40%	80%	40%	40%	40%	70%
CC(C)N(C(=O)n1cnn(S(=O)(=O)c2ccccc2F)c1=O)c1c(F)cc(F)cc1F [Compound 11-406]	30%	30%	100%	90%	80%	80%	70%	100%	80%	80%	100%	100%
Cc1cc(Cl)ccc1N(C(=O)n1cnn(S(=O)(=O)C2CCCCC2)c1=O)C(C)C [Compound 11-309]	80%	90%	80%	90%	90%	80%	80%	90%	90%	80%	80%	90%
CCN(CC)C(=O)n1cnn(S(=O)(=O)c2ccc(C)cc2)c1=O [Compound 11-625]	0%	0%	80%	80%					60%	40%	80%	100%
